# Results reported in patent publication EP1102769B1, “TRICYCLIC CARBOXAMIDES” (SmithKline Beecham plc, priority 1998, dated 2000).
# Test system: maximal (tonic hindlimb extension) electroshock seizures in male rats
# Assay: Maximal electroshock seizure (MEST) threshold test, rat model
# Format: in vivo, rats (Sprague Dawley)
# Conditions: 2 mg/kg p.o., suspension in methyl cellulose, one hour post dosing, statistically significant, percentage increase in CC50 compared to control
# Experimental: The maximal electroshock seizure (MEST) threshold test in rodents is particularly sensitive for detecting potential anticonvulsant properties ^1. In this model, anticonvulsant agents elevate the threshold to electrically-induced seizures whilst proconvulsants lower the seizure threshold.
# Mice (naive male, Charles River, U.K. CD-1 strain, 25 - 30g) are randomly assigned to groups of 10 - 20 and dosed orally or intraperitoneally at a dose volume of 10 ml/kg with various doses of compound (0.3 - 300 mg/kg) or vehicle. Mice are then subjected at 30 or 60 min post dose to a single electroshock (0.1 sec, 50Hz, sine wave form) administered via corneal electrodes. The mean current and standard error required to induce a tonic seizure in 50% (CC50) of the mice in a particular treatment group is determined by the 'up and down' method of Dixon and Mood (1948)^2. Statistical comparisons between vehicle- and drug-treated groups are made using the method of Litchfield and Wilcoxon (1949)^3. […]
# The threshold for maximal (tonic hindlimb extension) electroshock seizures in male rats (Sprague Dawley, 80 - 150g, 6 weeks old) was determined by a Hugo Sachs Electronik stimulator which delivered a constant current (0.3 sec duration; from 1-300mA in steps of 5-20mA). . […]
# The percentage increase or decrease in CC50 for each group compared to the control is calculated. […]
smiles,measurement,value
"COc1ccc(C(=O)Nc2ccc3c(c2)C2CCCN2CC3)cc1C(F)(F)F (racemic) [Example 3, (+/-)N-(1,2,3,5,6,10b-hexahydropyrrolo[2,1-a]isoquinolin-9-yl)-4-methoxy-3-trifluoromethylbenzamide]",increase in seizure threshold,426%
